pKd: −log10 of the molar value.

For the first assay, the system named is binding site 2 of the sodium channel. Briefly: Binding investigations at sodium channel binding site 2 (BTX binding). The conditions noted are these: 10 μM; rat cerebrocortex synaptosomes; [3H]-Batrachotoxinin A20 α-benzoate 10 nM; 37° C., 120 min. As for the experimental part:
Binding Investigations at Sodium Channel Binding Site 2
Binding site 2 of the sodium channel is the so-called batrachotoxin (BTX) binding site. [^3H]-Batrachotoxinin A20 α-benzoate (10 nM in the batch) was used as ligand. These ion channel particles (synaptosomes) were enriched from rat cerebrocortex after Gray and Whittaker (E. G. Gray and V. P. Whittaker (1962) J. Anat. 76, 79-88). The radioactivity measured in the presence of veratridine (0.3 mM in the batch) is defined as non-specific binding.
The assay conditions were as published by Pauwels, Leysen and Laduron (P. J. Pauwels, J. E. Leysen and P. M. Laduron (1986) Eur. J. Pharmacol. 124, 291-298). Incubation at 37° C. for 120 min.
Regarding `CN1CCN(CC2CCCCC2(O)c2ccc(Cl)cc2Cl)CC1` (centres unmarked) [1-(2,4-Dichloro-phenyl)-2-(4-methyl-piperazin-1-ylmethyl)-cyclohexanol], the “BTX binding at 10 μM [%] inhibition” value stood at 55%.

With `COc1ccc(C2(O)CCCCCCC2CN2CCN(C)CC2)cc1` (centres unmarked) [1-(4-Methoxy-phenyl)-2-(4-methyl-piperazin-1-ylmethyl)-cyclooctanol], the “BTX binding at 10 μM [%] inhibition” value came to 42%.

For `CN1CCN(CC2CCCCCC2(O)c2ccc(C(C)(C)C)cc2)CC1` (centres unmarked) [1-(4-tert-Butyl-phenyl)-2-(4-methyl-piperazin-1-ylmethyl)-cycloheptanol], the “BTX binding at 10 μM [%] inhibition” value was found to be 80%.

Take `CN1CCN(CC2CCCCCCC2(O)c2ccc(C(C)(C)C)cc2)CC1` (centres unmarked) [1-(4-tert-Butyl-phenyl)-2-(4-methyl-piperazin-1-ylmethyl)-cyclooctanol]: the “BTX binding at 10 μM [%] inhibition” value is reported as 64%.

On to `CN1CCN(CC2CCCCCC2(O)Cc2ccccc2)CC1` (centres unmarked) [1-Benzyl-2-(4-methyl-piperazin-1-ylmethyl)-cycloheptanol], for which the “BTX binding at 10 μM [%] inhibition” value stood at 86%.

Consider `CN1CCN(CC2CCCCC2(O)Cc2ccccc2)CC1` (centres unmarked) [1-Benzyl-2-(4-methyl-piperazin-1-ylmethyl)-cyclohexanol], for which the “BTX binding at 10 μM [%] inhibition” value is on record as 71%.

On to `CN1CCN(CC2CCCCCCC2(O)Cc2ccccc2)CC1` (centres unmarked) [1-Benzyl-2-(4-methyl-piperazin-1-ylmethyl)-cyclooctanol], for which the “BTX binding at 10 μM [%] inhibition” value was found to be 75%.

Take `CN1CCN(CC2CCCCCC2(O)C2CCCC2)CC1` (centres unmarked) [1-Cyclopentyl-2-(4-methyl-piperazin-1-ylmethyl)-cycloheptanol]: the “BTX binding at 10 μM [%] inhibition” value worked out at 55%.

Take `CN1CCN(CC2CCCCC2(O)C2CCCC2)CC1` (centres unmarked) [1-Cyclopentyl-2-(4-methyl-piperazin-1-ylmethyl)-cyclohexanol]: the “BTX binding at 10 μM [%] inhibition” value is listed as 49%.

Consider `CN1CCN(CC2CCCCCCC2(O)C2CCCC2)CC1` (centres unmarked) [1-Cyclopentyl-2-(4-methyl-piperazin-1-ylmethyl)-cyclooctanol], for which the “BTX binding at 10 μM [%] inhibition” value is 48%.

`CN1CCN(CC2CCCCC2(O)CCCc2ccccc2)CC1` (centres unmarked) [2-(4-Methyl-piperazin-1-ylmethyl)-1-(3-phenyl-propyl)-cyclohexanol]: the “BTX binding at 10 μM [%] inhibition” value amounted to 80%.

Take `CN1CCN(CC2CCCCCCC2(O)CCCc2ccccc2)CC1` (centres unmarked) [2-(4-Methyl-piperazin-1-ylmethyl)-1-(3-phenyl-propyl)-cyclooctanol]: the “BTX binding at 10 μM [%] inhibition” value is reported as 87%.

Consider `Cc1cccc(C2(O)CCCCCC2CN2CCN(C)CC2)c1` (centres unmarked) [2-(4-Methyl-piperazin-1-ylmethyl)-1-m-tolyl-cycloheptanol], for which the “BTX binding at 10 μM [%] inhibition” value is reported as 44%.

`Cc1ccccc1C1(O)CCCCC1CN1CCN(C)CC1` (centres unmarked) [2-(4-Methyl-piperazin-1-ylmethyl)-1-o-tolyl-cyclohexanol]: the “BTX binding at 10 μM [%] inhibition” value was 50%.

Turning to `CN1CCN(CC2CCCCCCC2(O)c2cccs2)CC1` (centres unmarked) [2-(4-Methyl-piperazin-1-ylmethyl)-1-thiophen-2-yl-cyclooctanol], the “BTX binding at 10 μM [%] inhibition” value came out at 64%.

For the compound `CN1CCN(CC2CCCCC2(O)C2CCCCC2)CC1` (centres unmarked) [2-(4-Methyl-piperazin-1-ylmethyl)-bicyclohexyl-1-ol], the “BTX binding at 10 μM [%] inhibition” value is listed as 63%.

For `CCC(O)(c1ccccc1C)C(C)CN1CCN(C)CC1` (centres unmarked) [2-Methyl-1-(4-methyl-piperazin-1-yl)-3-o-tolyl-pentan-3-ol], the “BTX binding at 10 μM [%] inhibition” value worked out at 43%.

In the case of `CCC(O)(c1ccc(C)cc1)C(C)CN1CCN(C)CC1` (centres unmarked) [2-Methyl-1-(4-methyl-piperazin-1-yl)-3-p-tolyl-pentan-3-ol], the “BTX binding at 10 μM [%] inhibition” value is reported as 48%.

Regarding `CCC(O)(c1ccccc1)C(C)CN1CCN(C)CC1` (centres unmarked) [2-Methyl-1-(4-methyl-piperazin-1-yl)-3-phenyl-pentan-3-ol], the “BTX binding at 10 μM [%] inhibition” value turned out to be 58%.

As to `CCC(O)(c1cccs1)C(C)CN1CCN(C)CC1` (centres unmarked) [2-Methyl-1-(4-methyl-piperazin-1-yl)-3-thiophen-2-yl-pentan-3-ol], the “BTX binding at 10 μM [%] inhibition” value was determined as 47%.

For the compound `CCC(O)(c1ccc(Cl)cc1)C(C)CN1CCN(C)CC1` (centres unmarked) [3-(4-Chloro-phenyl)-2-methyl-1-(4-methyl-piperazin-1-yl)-pentan-3-ol], the “BTX binding at 10 μM [%] inhibition” value turned out to be 59%.

In the case of `CCC(O)(c1ccc(F)c(C)c1)C(C)CN1CCN(C)CC1` (centres unmarked) [3-(4-Fluoro-3-methyl-phenyl)-2-methyl-1-(4-methyl-piperazin-1-yl)-pentan-3-ol], the “BTX binding at 10 μM [%] inhibition” value is given as 56%.

On to `CCC(O)(c1ccc(C(C)(C)C)cc1)C(C)CN1CCN(C)CC1` (centres unmarked) [3-(4-tert-Butyl-phenyl)-2-methyl-1-(4-methyl-piperazin-1-yl)-pentan-3-ol], for which the “BTX binding at 10 μM [%] inhibition” value turned out to be 68%.

As for `CCC(O)(Cc1ccccc1)C(C)CN1CCN(C)CC1` (centres unmarked) [3-Benzyl-2-methyl-1-(4-methyl-piperazin-1-yl)-pentan-3-ol], the “BTX binding at 10 μM [%] inhibition” value was determined as 42%.

Take `CCC(O)(C(C)CN1CCN(C)CC1)C1CCCCC1` (centres unmarked) [3-Cyclohexyl-2-methyl-1-(4-methyl-piperazin-1-yl)-pentan-3-ol]: the “BTX binding at 10 μM [%] inhibition” value is on record as 59%.

Turning to `CCC(O)(CCCc1ccccc1)C(C)CN1CCN(C)CC1` (centres unmarked) [3-Ethyl-2-methyl-1-(4-methyl-piperazin-1-yl)-6-phenyl-hexan-3-ol], the “BTX binding at 10 μM [%] inhibition” value is 74%.

Regarding `C=CC(O)(CC)C(C)CN1CCN(C)CC1` (centres unmarked) [3-Ethyl-4-methyl-5-(4-methyl-piperazin-1-yl)-pent-1-en-3-ol], the “BTX binding at 10 μM [%] inhibition” value came out at 67%.

Staying with this assay, now noted: radioligand; rat cerebrocortex synaptosomes; read-out: KD value for this binding site.
Turning to “[^3H]-Batrachotoxinin A20 α-benzoate [reference compound]”, the pKd is 7.61.

The target of a further assay is T1, NA transporter (Rattus norvegicus, UniProt Q63380).
T1 construct: synaptosomes were freshly isolated from rat brain regions; from tissue; host or cells: rat hypothalamus synaptosomes (P2 fraction)
T1 sequence (Q63380 1-617): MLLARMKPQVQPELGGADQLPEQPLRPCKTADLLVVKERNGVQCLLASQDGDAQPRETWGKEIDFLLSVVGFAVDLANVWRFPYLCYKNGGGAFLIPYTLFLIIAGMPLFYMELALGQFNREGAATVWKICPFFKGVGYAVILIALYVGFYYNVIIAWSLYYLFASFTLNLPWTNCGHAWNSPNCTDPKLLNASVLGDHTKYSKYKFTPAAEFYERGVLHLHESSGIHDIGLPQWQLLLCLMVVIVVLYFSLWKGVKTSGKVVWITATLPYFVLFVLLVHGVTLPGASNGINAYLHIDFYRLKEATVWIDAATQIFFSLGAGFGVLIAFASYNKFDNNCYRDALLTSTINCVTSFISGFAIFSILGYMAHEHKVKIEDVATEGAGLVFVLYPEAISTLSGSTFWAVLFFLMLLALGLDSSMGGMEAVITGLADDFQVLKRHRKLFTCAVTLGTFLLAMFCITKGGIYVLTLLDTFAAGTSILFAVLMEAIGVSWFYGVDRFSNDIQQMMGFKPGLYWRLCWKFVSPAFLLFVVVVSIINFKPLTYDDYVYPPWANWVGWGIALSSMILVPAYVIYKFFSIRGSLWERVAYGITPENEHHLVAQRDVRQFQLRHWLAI
Briefly: Noradrenaline reuptake inhibition (NA uptake inhibition) in synaptosomes. It is filed as biochemical. To be noted: synaptosomes from hypothalamus of male rat brains. As for the experimental part:
In order to be able to carry out these in vitro studies, synaptosomes were freshly isolated from rat brain regions. A so-called “P2” fraction was used, which was prepared according to the instructions given by Gray and Whittaker (E. G. Gray and V. P. Whittaker (1962) J. Anat. 76, 79-88).
`CN1CCN(CC2CCCCC2(O)c2ccc(F)cc2)CC1` (centres unmarked) [1-(4-Fluoro-phenyl)-2-(4-methyl-piperazin-1-ylmethyl)-cyclohexanol]: at 10 µM the inhibition was 51%.

Take `CCC(O)(Cc1cccc(C)c1)C(C)CN1CCN(c2cccc(Cl)c2)CC1` (centres unmarked) [1-[4-(3-Chloro-phenyl)-piperazin-1-yl]-2-methyl-3-(3-methyl-benzyl)-pentan-3-ol]: the inhibition at 10 µM was 55%.

Consider `CCC(O)(c1cccc(C(F)(F)F)c1)C(C)CN1CCN(c2cccc(Cl)c2)CC1` (centres unmarked) [1-[4-(3-Chloro-phenyl)-piperazin-1-yl]-2-methyl-3-(3-trifluoromethyl-phenyl)-pentan-3-ol], for which 10 µM produced 65% inhibition.

Turning to `CCC(O)(c1cccc(C)c1)C(C)CN1CCN(c2cccc(Cl)c2)CC1` (centres unmarked) [1-[4-(3-Chloro-phenyl)-piperazin-1-yl]-2-methyl-3-m-tolyl-pentan-3-ol], the inhibition at 10 µM turned out to be 42%.

Consider `CCC(O)(c1ccc(C)cc1)C(C)CN1CCN(c2cccc(Cl)c2)CC1` (centres unmarked) [1-[4-(3-Chloro-phenyl)-piperazin-1-yl]-2-methyl-3-p-tolyl-pentan-3-ol], for which at 10 µM the inhibition was 41%.

`CCC(O)(c1ccccc1)C(C)CN1CCN(c2cccc(Cl)c2)CC1` (centres unmarked) [1-[4-(3-Chloro-phenyl)-piperazin-1-yl]-2-methyl-3-phenyl-pentan-3-ol]: testing at 10 µM gave an inhibition of 61%.

Consider `CCC(O)(c1cccs1)C(C)CN1CCN(c2cccc(Cl)c2)CC1` (centres unmarked) [1-[4-(3-Chloro-phenyl)-piperazin-1-yl]-2-methyl-3-thiophen-2-yl-pentan-3-ol], for which the inhibition at 10 µM amounted to 45%.

`CCC(O)(Cc1cccc(F)c1)C(C)CN1CCN(c2cccc(Cl)c2)CC1` (centres unmarked) [1-[4-(3-Chloro-phenyl)-piperazin-1-yl]-3-(3-fluoro-benzyl)-2-methyl-pentan-3-ol]: the inhibition at 10 µM was determined as 50%.

Regarding `CCC(O)(c1cccc(F)c1)C(C)CN1CCN(c2cccc(Cl)c2)CC1` (centres unmarked) [1-[4-(3-Chloro-phenyl)-piperazin-1-yl]-3-(3-fluoro-phenyl)-2-methyl-pentan-3-ol], the inhibition at 10 µM was 53%.

For the compound `CCC(O)(c1ccc(F)c(C)c1)C(C)CN1CCN(c2cccc(Cl)c2)CC1` (centres unmarked) [1-[4-(3-Chloro-phenyl)-piperazin-1-yl]-3-(4-fluoro-3-methyl-phenyl)-2-methyl-pentan-3-ol], 10 µM produced 39% inhibition.

For `CCC(O)(c1ccc(F)cc1)C(C)CN1CCN(c2cccc(Cl)c2)CC1` (centres unmarked) [1-[4-(3-Chloro-phenyl)-piperazin-1-yl]-3-(4-fluoro-phenyl)-2-methyl-pentan-3-ol], the inhibition at 10 µM was found to be 53%.

The compound `CCC(O)(c1ccc(OC)cc1)C(C)CN1CCN(c2cccc(Cl)c2)CC1` (centres unmarked) [1-[4-(3-Chloro-phenyl)-piperazin-1-yl]-3-(4-methoxy-phenyl)-2-methyl-pentan-3-ol] registered an inhibition at 10 µM of 45%.

For `CCC(O)(C(C)CN1CCN(c2cccc(Cl)c2)CC1)C1CCCCC1` (centres unmarked) [1-[4-(3-Chloro-phenyl)-piperazin-1-yl]-3-cyclohexyl-2-methyl-pentan-3-ol], the inhibition at 10 µM turned out to be 73%.

The compound `CCC(O)(CCc1ccccc1)C(C)CN1CCN(c2cccc(Cl)c2)CC1` (centres unmarked) [1-[4-(3-Chloro-phenyl)-piperazin-1-yl]-3-ethyl-2-methyl-5-phenyl-pentan-3-ol] yielded an inhibition at 10 µM of 52%.

With `CCC(O)(CCCc1ccccc1)C(C)CN1CCN(c2cccc(Cl)c2)CC1` (centres unmarked) [1-[4-(3-Chloro-phenyl)-piperazin-1-yl]-3-ethyl-2-methyl-6-phenyl-hexan-3-ol], at 10 µM the inhibition was 55%.

`CCC(O)(c1cccc(Cl)c1)C(C)CN1CCN(c2cccc(Cl)c2)CC1` (centres unmarked) [3-(3-Chloro-phenyl)-1-[4-(3-chloro-phenyl)-piperazin-1-yl]-2-methyl-pentan-3-ol] yielded an inhibition at 10 µM of 53%.

The record behind these values is US7390812B2, “N, N'-disubstituted piperazine compounds and their use as analgesics” (Gruenenthal GmbH, priority 2001, dated 2008).
